Test results as given in US8215314B2, “Photochemical tissue bonding” (The General Hospital Corporation, priority 2000, dated 2012).
“Also recorded” adds a separate entry of the source.

Experiments:
[1] = system: rabbit (New Zealand White) corneas; assay: In vivo PTB of 3.5-mm corneal incisions, incisional bursting pressure; conditions: 1.5 mM RB
Experimental: PTB was performed in vivo in New Zealand rabbits to repair two types of corneal wounds.
In group I 3.5-mm incisions were performed in 20 rabbit (New Zealand White) corneas. Dose and laser irradiance were varied in subgroups of five or more eyes for each condition and appropriate control eyes. Photoactivation was performed with a 514 nm Argon Laser. Wound leak and incisional bursting pressure of the treated and untreated rabbit eyes was determined in vivo, with the animals under anesthetic.
Group I wounds were healed using, e.g., 191 J/cm2, applying 1.5 mM RB. The immediate in vivo bursting pressure was 495±10 mm Hg for PTB treated eyes. Under the same conditions the values of the busting pressure in the control eye varied from 15 to 60 mm Hg. One day after surgery, the bursting pressure was the same for PTB treated eyes and control eyes (approximately 450±125 mmHg). At 14 days, the bursting pressure exceeded 500 mm Hg in both PTB-treated and control eyes.

[2] = system: bovine tendon / NeuraGen collagen conduit interface; assay: Tensile strength of PTB bond between NeuraGen conduit and bovine tendon; conditions: RB dye, 532 nm, fluence of 150-300 Joules, 0.25 cm^2 interface
Experimental: Additional experiments were also performed to determine the effectiveness of PTB bonding between the NeuraGen™ conduits and an animal tissue, namely bovine tendon tissue. To do this, the tensile strength of a PTB bond formed between the bovine tendon and a segment of Neuregen™ conduit was tested, using various different photoactive dyes. Both the tendon surface and the inner surface of a piece of conduit were coated with RB dye and allowed to sit in the dark for 60 seconds. The two surfaces were then thoroughly dried and pressed together to form a tendon/conduit interface of approximately 0.25 cm^2. The construct was irradiated at 532 nm through the conduit toward the tendon/conduit interface at various fluence levels (Joules). Constructs were then pulled into tension using a tensiometer until the bond between the tendon and the conduit broke. The breaking force was measured in Newtons.

[3] = system: bovine achilles tendons; assay: PTB of ruptured bovine achilles tendons in vitro, ultimate stress and stiffness; conditions: for Mean change in stiffness % (95% CI) / Mean change in ultimate stress % (95% CI): relative to healthy tendon
Experimental: To test the ability of PTB to quickly and effectively bond ruptured tendons, an in vitro model utilizing bovine tendons was developed. The use of bovine models in wound healing is well known by those skilled in the art. The similarities between bovine wound healing and that of humans enables one to extrapolate the therapeutic results obtained in a bovine model system to a therapeutic result in humans.
Fresh bovine achilles tendons were obtained and stored at […] until use. The tendon was cut into dumbbell-shaped 5 cm strips with the central 3 cm strip at an approximate cross-sectional area of 1 mm by 1 mm, and were irrigated constantly with phosphate buffered saline (PBS) to prevent desiccation.
Rupture of the tendon was induced by weakening the central 1 cm of the tendon with a surgical blade and mechanically pulling it apart. A solution of Rose Bengal at various concentrations (0.1, 0.5 and 1.0% weight per volume in PBS) was applied to the ends of the ruptured tendons for two minutes, after which the ruptured ends were approximated and the excess dye was removed.
The ruptured ends of the tendon were crossed over each other with an overlap of approximately 1 cm before being wrapped by several layers of tissue paper. The tissue wrapped tendon was rolled and pressed in order to approximate the ruptured ends and remove the excess dye. The tissue paper was carefully removed before the tendon was placed between two glass slides that were then clipped together.
The center of the approximated tendon was irradiated with an argon laser (514 nm), having a spot size of 1 cm in diameter, which was transmitted through an optic fiber. The laser was applied with an irradiance of 0.5, 1.0, or 1.5 W/cm^2, while the fluence of laser energy applied was 125, 250, 500, or 750 J/cm^2. The exposure time ranged from 1 min and 23 seconds to 25 minutes.
Control tendons were ruptured in the same manner, however treatments consisted of application of Rose Bengal and approximation of the tendon ends without laser irradation, approximation of the tendon ends with laser irradiation but no exposure to rose bengal, and approximation of the ends with no further treatment.
To test the effectiveness of the photochemical tissue bonding, immediately after photochemical tissue bonding, the tendon strips were attached to the fixture of a tensiometer, which was coupled to a force transducer (FIG. 17). The tendon was held at a straight and vertical position, and cyclic loading of the tendon was conducted by stretching the tendon for a magnitude of 0.5 mm for 6 cycles. The tendon was brought back to a zero deflection position before being pulled to failure at a constant speed of 100 mm/min. The peak force needed to rupture the tendon was recorded, and a typical force-deflection curve was obtained (FIG. 18). The ultimate stress and stiffness (peak force for tendon rupture normalized by the cross-sectional area, and slope of the linear region of the force-deflection curve, respectively) were calculated from the force-deflection curve.
Healthy tendons were also placed in the tensiometer, and were pulled to the point of failure. Following failure, they were treated with photochemical tissue bonding at 500 J/cm^2 fluence and again pulled to failure to study the percentage of recovery of mechanical properties. Immediately after the photochemical tissue bonding, the ultimate stress and the stiffness returned to approximately 59.66% and 52.75% of the healthy tendon, respectively (Table 1).

[4] = system: pig vein and arteries; assay: Ex vivo porcine blood vessel anastomosis by PTB (cuff approach), tensile strength; conditions: 0.1% v/v in saline, 532 nm, 0.5 W/cm2 for 2.5 minutes
From the text: In adhering segments of vascular tissue according to methods of the invention, two pieces of blood vessel are joined and photochemically bonded together to create an intimate, watertight seal. Two methods were considered to accomplish anastomosis. The “cuff” approach, which entails administration of the photoactive dye to the outer surface of the proximal vessel and the inside surface of the distal stump of the vessel. The distal stump is folded back on itself and the proximal stump brought into contact. The distal cuff is then placed over the proximal vessel to form a cuff. The overlap region in the cuff is then irradiated with visible light to bond the ends of the vessel together. FIG. 30 represents a schematic overview of the cuff approach.
The cuff approach was used with pig vein and arteries ex vivo. The vessels were sharply transected using a scalpel. Rose bengal at a concentration of 0.1% v/v in saline was applied to the outside surface of the proximal stump of the vessel and the inside surface of the distal vessel. The vessels were then mounted over a cylindrical glass rod that acts as support for the hollow vessels. A distal cuff was formed by folding the end of the distal end back on itself, as described above and in FIG. 30. […]

[5] = argon laser 514 nm and Rose Bengal
[6] = higher Rose Bengal concentrations (0.0, 0.1, 0.5, 1.0% w/v in PBS)

`O=C([O-])c1c(Cl)c(Cl)c(Cl)c(Cl)c1-c1c2cc(I)c(=O)c(I)c-2oc2c(I)c([O-])c(I)cc12.[Na+].[Na+]` [Rose Bengal] was tested, and the “immediate in vivo bursting pressure” value ([1]; 191 J/cm2, 514 nm, 3.5-mm incision) was 495±10 mm Hg, the “bursting pressure at 14 days” value ([1]; 191 J/cm2, also in control eyes) was “exceeded 500 mm Hg” and the “bursting pressure one day after surgery” value ([1]; 191 J/cm2, same as control eyes) was “approximately 450±125 mmHg”. The “bond between tendon and conduit (breaking force)” value [2] was “effective bond was formed”, the “dehydration of the tendon” value ([3]; 1.0% Rose Bengal) was “dehydration of the tendon was noticed” and the “Mean change in stiffness % (95% CI)” value ([3]; Dye control (dye, no laser)) was 20.65 (10.16, 31.14) %. For the same molecule, the “Mean change in ultimate stress % (95% CI)” value ([3]; Dye control (dye, no laser)) was 24.18 (6.57, 41.79) %, the “Mean change in stiffness % (95% CI)” value ([3]; Laser + Dye, 500 J/cm^2) was 52.75 (24.05, 81.45) % and the “Mean change in ultimate stress % (95% CI)” value ([3]; Laser + Dye, 500 J/cm^2) was 59.66 (8.71, 110.61) %. For the same molecule, the “stiffness of ruptured tendon vs controls” value [3, 5] was “significantly increased; also recorded: significant increase”, the “ultimate stress of ruptured tendon vs controls” value [3, 5] was “significantly increased; also recorded: significant increase” and the “stiffness of ruptured tendon” value [3, 6] was “significant increase”. For the same molecule, the “ultimate stress of ruptured tendon” value [3, 6] was “significant increase” and the “stretch of anastomosed vessels before rupture” value [4] was 3-4 times their normal length.
